Assay results as given in ChEMBL document CHEMBL1149245 (J Med Chem, 2004).
Activity calls are given as the source filed them. The rule behind the calls is not given here.

What was measured:
[1] = target: T1, Alpha-2C adrenergic receptor (Homo sapiens, UniProt P18825); assay: Displacement of [3H]RX821002 from human adrenergic Alpha-2C receptor expressed in CHO cells; type: cell-based
T1 sequence (P18825 whole entry): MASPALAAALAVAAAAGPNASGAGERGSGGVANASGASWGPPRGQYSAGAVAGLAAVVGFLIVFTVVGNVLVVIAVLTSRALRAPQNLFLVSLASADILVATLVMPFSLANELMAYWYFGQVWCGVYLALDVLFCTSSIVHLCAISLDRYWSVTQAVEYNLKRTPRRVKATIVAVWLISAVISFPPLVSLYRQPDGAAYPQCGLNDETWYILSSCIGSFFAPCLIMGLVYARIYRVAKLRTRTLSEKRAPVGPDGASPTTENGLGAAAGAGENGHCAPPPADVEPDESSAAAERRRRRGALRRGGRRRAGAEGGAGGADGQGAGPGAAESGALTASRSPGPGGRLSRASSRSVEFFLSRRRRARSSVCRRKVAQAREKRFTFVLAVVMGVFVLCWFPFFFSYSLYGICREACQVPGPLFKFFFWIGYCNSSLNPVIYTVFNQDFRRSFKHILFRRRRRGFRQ

[2] = target: T1, Alpha-2C adrenergic receptor; type: functional, cell-based, CHO
Description: Agonist activity at human adrenergic alpha-2C receptor expressed in CHO cells assessed as extracellular acidification by cytosensor microphysiometry

[3] = target: T2, Alpha-2B adrenergic receptor (Homo sapiens, UniProt P18089); assay: Displacement of [3H]RX821002 from human adrenergic alpha-2B receptor expressed in CHO cells; type: cell-based
T2 sequence (P18089 whole entry): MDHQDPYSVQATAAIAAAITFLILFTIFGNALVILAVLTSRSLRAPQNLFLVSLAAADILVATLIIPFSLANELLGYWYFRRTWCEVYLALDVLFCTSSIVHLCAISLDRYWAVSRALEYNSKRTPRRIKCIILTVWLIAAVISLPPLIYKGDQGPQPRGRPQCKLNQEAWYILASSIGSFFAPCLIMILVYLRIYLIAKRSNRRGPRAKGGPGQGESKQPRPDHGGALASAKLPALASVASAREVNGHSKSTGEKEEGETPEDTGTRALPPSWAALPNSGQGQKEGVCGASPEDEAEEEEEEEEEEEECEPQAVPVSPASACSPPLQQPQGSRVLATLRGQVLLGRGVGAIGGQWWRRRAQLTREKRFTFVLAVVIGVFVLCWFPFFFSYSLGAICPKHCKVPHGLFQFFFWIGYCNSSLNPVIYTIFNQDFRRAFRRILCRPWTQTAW

[4] = target: T3, Alpha-2A adrenergic receptor (Homo sapiens, UniProt P08913); assay: Displacement of [3H]RX821002 from human adrenergic alpha2A receptor expressed in CHO cells; type: cell-based
T3 sequence (P08913 whole entry): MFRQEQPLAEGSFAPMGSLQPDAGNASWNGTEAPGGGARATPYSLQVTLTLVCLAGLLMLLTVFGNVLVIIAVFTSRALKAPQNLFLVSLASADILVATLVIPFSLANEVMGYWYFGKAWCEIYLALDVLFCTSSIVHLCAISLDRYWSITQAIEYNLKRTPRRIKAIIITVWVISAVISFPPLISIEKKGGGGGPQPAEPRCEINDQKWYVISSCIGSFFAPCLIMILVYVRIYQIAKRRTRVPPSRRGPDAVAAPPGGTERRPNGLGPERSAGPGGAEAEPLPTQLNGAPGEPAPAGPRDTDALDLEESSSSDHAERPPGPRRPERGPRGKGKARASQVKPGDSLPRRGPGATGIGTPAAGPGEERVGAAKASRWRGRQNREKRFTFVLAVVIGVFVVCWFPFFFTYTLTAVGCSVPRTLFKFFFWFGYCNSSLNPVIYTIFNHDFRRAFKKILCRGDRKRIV

[5] = target: T3, Alpha-2A adrenergic receptor; type: functional, cell-based, CHO
Description: Agonist activity at human adrenergic alpha-2A receptor expressed in CHO cells assessed as extracellular acidification by cytosensor microphysiometry

[6] = target: T2, Alpha-2B adrenergic receptor; assay: Agonist activity at human adrenergic alpha-2B receptor expressed in CHO cells assessed as extracellular acidification by cytosensor microphysiometry; type: functional, cell-based
Nischarin = Nischarin (Homo sapiens, UniProt Q9Y2I1); assay: Binding affinity to imidazoline receptor 1
Chain of Nischarin (Q9Y2I1 whole entry): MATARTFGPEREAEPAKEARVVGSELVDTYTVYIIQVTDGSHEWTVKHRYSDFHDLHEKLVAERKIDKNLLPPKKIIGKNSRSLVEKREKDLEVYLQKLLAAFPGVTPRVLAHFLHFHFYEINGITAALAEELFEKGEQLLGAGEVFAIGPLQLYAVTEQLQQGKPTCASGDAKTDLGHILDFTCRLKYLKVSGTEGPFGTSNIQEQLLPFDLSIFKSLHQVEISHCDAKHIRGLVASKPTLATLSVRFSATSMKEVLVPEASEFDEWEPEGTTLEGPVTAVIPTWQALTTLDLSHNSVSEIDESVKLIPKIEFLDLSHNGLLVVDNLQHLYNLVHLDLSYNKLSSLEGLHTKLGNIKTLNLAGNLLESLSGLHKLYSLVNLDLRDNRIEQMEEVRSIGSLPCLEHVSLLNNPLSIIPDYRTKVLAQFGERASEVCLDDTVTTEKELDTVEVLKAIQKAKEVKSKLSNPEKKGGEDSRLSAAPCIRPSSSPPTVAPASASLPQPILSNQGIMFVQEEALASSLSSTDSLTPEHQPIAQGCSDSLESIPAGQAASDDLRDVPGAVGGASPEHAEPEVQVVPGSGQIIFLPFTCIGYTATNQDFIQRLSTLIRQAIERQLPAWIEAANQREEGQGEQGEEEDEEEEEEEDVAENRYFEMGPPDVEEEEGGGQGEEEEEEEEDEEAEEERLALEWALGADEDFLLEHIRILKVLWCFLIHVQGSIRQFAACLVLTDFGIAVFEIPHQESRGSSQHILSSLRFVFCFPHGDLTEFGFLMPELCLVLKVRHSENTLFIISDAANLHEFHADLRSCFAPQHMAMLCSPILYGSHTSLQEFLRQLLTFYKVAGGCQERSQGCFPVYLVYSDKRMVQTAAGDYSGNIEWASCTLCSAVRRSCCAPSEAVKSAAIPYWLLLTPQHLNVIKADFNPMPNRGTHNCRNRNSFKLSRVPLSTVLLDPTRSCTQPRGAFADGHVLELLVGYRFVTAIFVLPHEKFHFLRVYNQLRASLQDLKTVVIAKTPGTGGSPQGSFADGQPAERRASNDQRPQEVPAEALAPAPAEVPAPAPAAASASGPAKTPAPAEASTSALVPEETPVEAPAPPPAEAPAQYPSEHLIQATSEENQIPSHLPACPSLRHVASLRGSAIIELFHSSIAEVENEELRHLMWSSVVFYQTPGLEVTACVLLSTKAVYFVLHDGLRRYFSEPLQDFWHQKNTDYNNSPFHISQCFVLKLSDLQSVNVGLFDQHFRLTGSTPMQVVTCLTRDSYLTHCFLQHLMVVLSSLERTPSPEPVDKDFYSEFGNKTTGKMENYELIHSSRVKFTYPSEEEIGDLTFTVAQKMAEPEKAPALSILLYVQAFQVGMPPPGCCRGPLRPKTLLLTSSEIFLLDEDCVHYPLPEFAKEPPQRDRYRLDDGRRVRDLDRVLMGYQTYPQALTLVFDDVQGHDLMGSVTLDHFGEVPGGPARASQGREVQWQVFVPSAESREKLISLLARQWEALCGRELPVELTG

[7] = target: T4, Alpha-2A adrenergic receptor (Homo sapiens) (UniProt P08913); assay: (§1) Agonist activity at human adrenergic alpha-2A receptor expressed in CHO cells assessed as inhibition of forskolin-induced cAMP accumulation; type: functional, cell-based
T4 sequence (whole entry): T3 sequence (P08913 whole entry)

[8] = target: T5, Alpha-2C adrenergic receptor (Homo sapiens) (UniProt P18825); assay: (§2) Agonist activity at human adrenergic Alpha-2C receptor expressed in CHO cells assessed as inhibition of forskolin-induced cAMP accumulation; type: functional, cell-based
T5 sequence (whole entry): T1 sequence (P18825 whole entry)

[9] = target: T1, Alpha-2C adrenergic receptor; assay: as §2; type: functional, cell-based
[10] = target: T3, Alpha-2A adrenergic receptor; assay: as §1; type: functional, cell-based

| Ki [1] | EC50 [2] | Ki [3] | Ki [4] | EC50 [5] | EC50 [6] | Intrinsic activity [7] | EC50 [10] | Compound | Ki (Nischarin) | Activity [7] | Intrinsic activity [8] | EC50 [9] |
| --- | --- | --- | --- | --- | --- | --- | --- | --- | --- | --- | --- | --- |
| 132 nM | 93.3 nM | 417 nM | 45.7 nM | 75.9 nM |  |  |  | CC(Oc1ccccc1-c1ccsc1)C1=NCCN1 (stereo unspecified) |  |  |  |  |
| 1620 nM |  | 1000 nM | 309 nM |  |  |  |  | CC(Oc1ccccc1-c1ccccc1O)C1=NCCN1 (stereo unspecified) |  |  |  |  |
| 251 nM | 832 nM | 398 nM | 41.7 nM |  |  |  |  | Cc1ccc(-c2ccccc2OC(C)C2=NCCN2)cc1 (stereo unspecified) |  |  |  |  |
| 1450 nM |  | 2690 nM | 282 nM |  |  |  |  | CC(Oc1ccccc1-c1ccncc1)C1=NCCN1 (stereo unspecified) |  |  |  |  |
| 245 nM | 1580 nM | 537 nM | 51.3 nM |  |  |  |  | Cc1cccc(-c2ccccc2OC(C)C2=NCCN2)c1 (stereo unspecified) |  |  |  |  |
| 309 nM | 501 nM | 479 nM | 37.2 nM | 257 nM |  |  |  | CC(Oc1ccccc1-c1cccc(N)c1)C1=NCCN1 (stereo unspecified) |  |  |  |  |
| 17.8 nM | 46.8 nM | 355 nM | 27.5 nM |  | 5250 nM |  |  | CC(Oc1ccccc1-c1cccc(O)c1)C1=NCCN1 (stereo unspecified) |  |  |  |  |
| 17 nM | 60.3 nM | 269 nM | 14.8 nM | 105 nM |  |  |  | CC(Oc1ccccc1-c1cccc(F)c1)C1=NCCN1 (stereo unspecified) |  |  |  |  |
| 331 nM |  | 813 nM | 33.9 nM |  |  |  |  | CC(Oc1ccccc1-c1ccc(O)cc1)C1=NCCN1 (stereo unspecified) |  |  |  |  |
| 302 nM |  | 501 nM | 123 nM |  |  |  |  | CC(Oc1ccccc1-c1ccc([N+](=O)[O-])cc1)C1=NCCN1 (stereo unspecified) |  |  |  |  |

The next lines start with the compound.

| Compound | Ki [1] | EC50 [2] | Ki [3] | Ki [4] | EC50 [5] | EC50 [6] | Intrinsic activity [7] | EC50 [10] | Ki (Nischarin) | Activity [7] | Intrinsic activity [8] | EC50 [9] |
| --- | --- | --- | --- | --- | --- | --- | --- | --- | --- | --- | --- | --- |
| CC(Oc1ccccc1-c1ccccc1)C1=NCCS1 (stereo unspecified) | > 10000 nM |  | > 10000 nM | > 10000 nM |  |  |  |  |  |  |  |  |
| CC(Sc1ccccc1-c1ccccc1)C1=NCCN1 (stereo unspecified) | 708 nM |  | 3550 nM | 339 nM |  |  |  |  |  |  |  |  |
| Cc1ccccc1-c1ccccc1OC(C)C1=NCCN1 (stereo unspecified) | 234 nM | 363 nM | 832 nM | 46.8 nM |  |  |  |  |  |  |  |  |
| CC(Oc1ccccc1-c1ccccc1[N+](=O)[O-])C1=NCCN1 (stereo unspecified) | 1230 nM |  | 1550 nM | 174 nM |  |  |  |  |  |  |  |  |
| c1ccc(-c2ccccc2C2OC2C2=NCCN2)cc1 (cis isomer) | 6460 nM | 2690 nM | 20000 nM | 1230 nM | 3470 nM |  |  |  |  |  |  |  |
| CC(Oc1ccccc1-c1ccccn1)C1=NCCN1 (stereo unspecified) | 1260 nM |  | 3310 nM | 1200 nM |  |  |  |  |  |  |  |  |
| c1ccc(-c2ccccc2C2OC2C2=NCCN2)cc1 (stereo unspecified) | 4270 nM |  | 1230 nM | 1510 nM |  |  |  |  |  |  |  |  |
| CC(Nc1ccccc1-c1ccccc1)C1=NCCN1 (stereo unspecified) | 708 nM | 93.3 nM | 1150 nM | 91.2 nM | 389 nM | 3800 nM |  |  |  |  |  |  |
| CC(Oc1ccccc1-c1ccccc1)C1=NCCC1 (stereo unspecified) | 5890 nM |  | 10000 nM | 8130 nM |  |  |  |  |  |  |  |  |
| CC(Oc1ccccc1-c1ccccc1)C1=NCCN1 (stereo unspecified) [BIPHENYLINE] | 200 nM | 57.5 nM | 501 nM | 47.9 nM | 115 nM | 646 nM |  |  | 126 nM |  |  |  |
| CC(Oc1ccccc1-c1cccc([N+](=O)[O-])c1)C1=NCCN1 (stereo unspecified) | 234 nM | 100 nM | 661 nM | 60.3 nM |  |  |  |  |  | inactive | 0.6 | 158 nM |
| CC(Oc1ccccc1-c1ccccc1)C1=NCCO1 (stereo unspecified) | 5890 nM |  | 10000 nM | 8130 nM |  |  |  |  |  |  |  |  |
| CC(Oc1ccccc1-c1cccs1)C1=NCCN1 (stereo unspecified) | 72.4 nM | 58.9 nM | 214 nM | 17 nM | 41.7 nM | 1000 nM |  |  |  |  |  |  |
| CC(Oc1ccccc1-c1cccnc1)C1=NCCN1 (stereo unspecified) | 64.6 nM | 50.1 nM | 933 nM | 138 nM | 316 nM | 1000 nM | 0.5 | 589 nM |  |  | 1 | 39.8 nM |
